Data reported in PubChem BioAssay (NCI).
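These data come from cells grown in 96-well plates and exposed to compound for 48 hours at five concentrations. GI50: concentration for 50% inhibition of growth. TGI: total growth inhibition.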

What was measured:
Assay in all cases: DTP human tumour cell line panel, 48 h
OVCAR-3 ovarian = tested on: OVCAR-3 ovarian
CCRF-CEM leukemia = tested on: CCRF-CEM leukemia
NCI-H460 lung = tested on: NCI-H460 lung
UO-31 renal = tested on: UO-31 renal
HCC-2998 colon = tested on: HCC-2998 colon
SW-620 colon = tested on: SW-620 colon
OVCAR-8 ovarian = tested on: OVCAR-8 ovarian
NCI/ADR-RES ovarian = tested on: NCI/ADR-RES ovarian
NCI-H23 lung = tested on: NCI-H23 lung
SR leukemia = tested on: SR leukemia
SF-539 CNS = tested on: SF-539 CNS
HCT-15 colon = tested on: HCT-15 colon
UACC-257 melanoma = tested on: UACC-257 melanoma
EKVX NSCLC = tested on: EKVX NSCLC
IGROV1 ovarian = tested on: IGROV1 ovarian
HS 578T breast = tested on: HS 578T breast
MOLT-4 leukemia = tested on: MOLT-4 leukemia
DU-145 prostate = tested on: DU-145 prostate
SK-MEL-28 melanoma = tested on: SK-MEL-28 melanoma
NCI-H522 lung = tested on: NCI-H522 lung
MALME-3M melanoma = tested on: MALME-3M melanoma
SNB-75 CNS = tested on: SNB-75 CNS
KM12 colon = tested on: KM12 colon
MDA-MB-231 breast = tested on: MDA-MB-231 breast
OVCAR-5 ovarian = tested on: OVCAR-5 ovarian
SK-OV-3 ovarian = tested on: SK-OV-3 ovarian
RPMI-8226 leukemia = tested on: RPMI-8226 leukemia
CAKI-1 renal = tested on: CAKI-1 renal
A549 NSCLC = tested on: A549 NSCLC
NCI-H226 lung = tested on: NCI-H226 lung
ACHN renal = tested on: ACHN renal
SF-268 CNS = tested on: SF-268 CNS
K-562 leukemia = tested on: K-562 leukemia
SK-MEL-2 melanoma = tested on: SK-MEL-2 melanoma
HOP-62 NSCLC = tested on: HOP-62 NSCLC
MDA-MB-435 = tested on: MDA-MB-435
HT29 colon = tested on: HT29 colon
TK-10 renal = tested on: TK-10 renal
HOP-92 NSCLC = tested on: HOP-92 NSCLC
SK-MEL-5 melanoma = tested on: SK-MEL-5 melanoma
COLO 205 colon = tested on: COLO 205 colon
HL-60(TB) leukemia = tested on: HL-60(TB) leukemia
MCF7 breast = tested on: MCF7 breast
SF-295 CNS = tested on: SF-295 CNS
HCT-116 colon = tested on: HCT-116 colon
LOX IMVI melanoma = tested on: LOX IMVI melanoma

Compound: CCCCCCCCCOc1c(OC)cc(C2CC(=O)Nc3c2c(C)nn3-c2nc3ccccc3[nH]2)cc1OC (configuration not stated)
- GI50 (OVCAR-3 ovarian): 1180 nM
- TGI (OVCAR-3 ovarian): 2890 nM
- GI50 (CCRF-CEM leukemia): 1720 nM
- TGI (CCRF-CEM leukemia): > 50000 nM
- GI50 (NCI-H460 lung): 928 nM
- TGI (NCI-H460 lung): 1800 nM
- GI50 (UO-31 renal): 679 nM
- TGI (UO-31 renal): 1320 nM
- GI50 (HCC-2998 colon): 1620 nM
- TGI (HCC-2998 colon): > 50000 nM
- GI50 (SW-620 colon): 1000 nM
- TGI (SW-620 colon): 2170 nM
- GI50 (OVCAR-8 ovarian): 1710 nM
- TGI (OVCAR-8 ovarian): 7280 nM
- GI50 (NCI/ADR-RES ovarian): 1310 nM
- TGI (NCI/ADR-RES ovarian): 3740 nM
- GI50 (NCI-H23 lung): 904 nM
- TGI (NCI-H23 lung): 1830 nM
- GI50 (SR leukemia): 1570 nM
- TGI (SR leukemia): 6510 nM
- GI50 (SF-539 CNS): 851 nM
- TGI (SF-539 CNS): 1650 nM
- GI50 (HCT-15 colon): 1050 nM
- TGI (HCT-15 colon): 2460 nM
- GI50 (UACC-257 melanoma): 1470 nM
- TGI (UACC-257 melanoma): > 50000 nM
- GI50 (EKVX NSCLC): 981 nM
- TGI (EKVX NSCLC): 2320 nM
- GI50 (IGROV1 ovarian): 890 nM
- TGI (IGROV1 ovarian): 1770 nM
- GI50 (HS 578T breast): 622 nM
- TGI (HS 578T breast): 1970 nM
- GI50 (MOLT-4 leukemia): 1340 nM
- TGI (MOLT-4 leukemia): 3250 nM
- GI50 (DU-145 prostate): 1790 nM
- TGI (DU-145 prostate): > 50000 nM
- GI50 (SK-MEL-28 melanoma): 897 nM
- TGI (SK-MEL-28 melanoma): 1810 nM
- GI50 (NCI-H522 lung): 1010 nM
- TGI (NCI-H522 lung): 2400 nM
- GI50 (MALME-3M melanoma): 914 nM
- TGI (MALME-3M melanoma): 1920 nM
- GI50 (SNB-75 CNS): 670 nM
- TGI (SNB-75 CNS): 1550 nM
- GI50 (KM12 colon): 1170 nM
- TGI (KM12 colon): 3080 nM
- GI50 (MDA-MB-231 breast): 975 nM
- TGI (MDA-MB-231 breast): 1870 nM
- GI50 (OVCAR-5 ovarian): 881 nM
- TGI (OVCAR-5 ovarian): 1860 nM
- GI50 (SK-OV-3 ovarian): 1060 nM
- TGI (SK-OV-3 ovarian): 2090 nM
- GI50 (RPMI-8226 leukemia): 1460 nM
- TGI (RPMI-8226 leukemia): 4290 nM
- GI50 (CAKI-1 renal): 917 nM
- TGI (CAKI-1 renal): 1810 nM
- GI50 (A549 NSCLC): 1080 nM
- TGI (A549 NSCLC): 2350 nM
- GI50 (NCI-H226 lung): 939 nM
- TGI (NCI-H226 lung): 1840 nM
- GI50 (ACHN renal): 1130 nM
- TGI (ACHN renal): 2790 nM
- GI50 (SF-268 CNS): 1040 nM
- TGI (SF-268 CNS): 2570 nM
- GI50 (K-562 leukemia): 1810 nM
- TGI (K-562 leukemia): > 50000 nM
- GI50 (SK-MEL-2 melanoma): 1410 nM
- TGI (SK-MEL-2 melanoma): 4310 nM
- GI50 (HOP-62 NSCLC): 974 nM
- TGI (HOP-62 NSCLC): 2110 nM
- GI50 (MDA-MB-435): 982 nM
- TGI (MDA-MB-435): 1990 nM
- GI50 (HT29 colon): 1640 nM
- TGI (HT29 colon): > 50000 nM
- GI50 (TK-10 renal): 1270 nM
- TGI (TK-10 renal): 3830 nM
- GI50 (HOP-92 NSCLC): 955 nM
- TGI (HOP-92 NSCLC): 2460 nM
- GI50 (SK-MEL-5 melanoma): 871 nM
- TGI (SK-MEL-5 melanoma): 1560 nM
- GI50 (COLO 205 colon): 1730 nM
- TGI (COLO 205 colon): > 50000 nM
- GI50 (HL-60(TB) leukemia): 1580 nM
- TGI (HL-60(TB) leukemia): 4450 nM
- GI50 (MCF7 breast): 1590 nM
- TGI (MCF7 breast): > 50000 nM
- GI50 (SF-295 CNS): 816 nM
- TGI (SF-295 CNS): 1740 nM
- GI50 (HCT-116 colon): 1780 nM
- TGI (HCT-116 colon): > 50000 nM
- GI50 (LOX IMVI melanoma): 913 nM
- TGI (LOX IMVI melanoma): 1670 nM
